From patent publication US20110111016A1, “NON-DNA BASE-CONTAINING POLYNUCLEOTIDE COMPOSITIONS AND THEIR USE FOR THE MODULATION OF IMMUNE RESPONSES” (priority 2009, published 2011)

Tests used:
human TLR4 = biological target: T1, human TLR4 (Homo sapiens, UniProt O00206+Q9Y6Y9); experiment: NF-κB activation (secreted alkaline phosphatase reporter) in HEK293 cells expressing human TLR4; assay type: cell-based; conditions: HEK293/hTLR4 cell line; polynucleotide final concentration 10 μg/mL; 16-20 hours
T1 construct: host or cells: HEK293
Method: (§1) Toll-like receptors (TLR) are known to interact with a number of natural and synthetic molecules that can function as immune adjuvants. Examples of these molecules are Poly (I:C) polynucleotides, lipopolysaccharide and CpG-containing polynucleotides. The interaction of non-DNA base-containing polynucleotides (SEQ ID NOs: 1-3) to interact with TLR and induce down-stream signaling was tested by assessing NF-κB activation in HEK293 cells expressing human TLR2, 3, 4, 5, 7, 8 and 9. TLR engagement was determined by measurement of secreted alkaline phosphatase, under the control of a reporter inducible by NF-κB. Appropriate positive controls were used for each TLR. The non-DNA base-containing polynucleotides were dissolved in sterile water at a concentration of 100 μg/mL, and used at a final concentration of 10 μg/mL. HEK293 cells containing the appropriate TLR and NF-κB reporting system (InvivoGen, San Diego, Calif., USA) were placed in wells of 96 well plates (25,000-50,000 cells, in a final volume of 200 μL medium designed for the detection of NF-κB induced secreted alkaline phosphatase expression), and incubated with non-DNA base-containing polynucleotides or positive controls for 16-20 hours. TLR activating activity was determined by measurement of absorbance at 650 nm wavelength using a Coulter AD340C absorbance detector. The results shown are expressed as Optical Density (OD).

human TLR7 = biological target: T2, human TLR7 (Homo sapiens, UniProt Q9NYK1); experiment: NF-κB activation (secreted alkaline phosphatase reporter) in HEK293 cells expressing human TLR7; assay type: cell-based; conditions: HEK293/TLR7 cell line; polynucleotide final concentration 10 μg/mL; 16-20 hours
T2 construct: host or cells: HEK293
T2 sequence (Q9NYK1 27-1049): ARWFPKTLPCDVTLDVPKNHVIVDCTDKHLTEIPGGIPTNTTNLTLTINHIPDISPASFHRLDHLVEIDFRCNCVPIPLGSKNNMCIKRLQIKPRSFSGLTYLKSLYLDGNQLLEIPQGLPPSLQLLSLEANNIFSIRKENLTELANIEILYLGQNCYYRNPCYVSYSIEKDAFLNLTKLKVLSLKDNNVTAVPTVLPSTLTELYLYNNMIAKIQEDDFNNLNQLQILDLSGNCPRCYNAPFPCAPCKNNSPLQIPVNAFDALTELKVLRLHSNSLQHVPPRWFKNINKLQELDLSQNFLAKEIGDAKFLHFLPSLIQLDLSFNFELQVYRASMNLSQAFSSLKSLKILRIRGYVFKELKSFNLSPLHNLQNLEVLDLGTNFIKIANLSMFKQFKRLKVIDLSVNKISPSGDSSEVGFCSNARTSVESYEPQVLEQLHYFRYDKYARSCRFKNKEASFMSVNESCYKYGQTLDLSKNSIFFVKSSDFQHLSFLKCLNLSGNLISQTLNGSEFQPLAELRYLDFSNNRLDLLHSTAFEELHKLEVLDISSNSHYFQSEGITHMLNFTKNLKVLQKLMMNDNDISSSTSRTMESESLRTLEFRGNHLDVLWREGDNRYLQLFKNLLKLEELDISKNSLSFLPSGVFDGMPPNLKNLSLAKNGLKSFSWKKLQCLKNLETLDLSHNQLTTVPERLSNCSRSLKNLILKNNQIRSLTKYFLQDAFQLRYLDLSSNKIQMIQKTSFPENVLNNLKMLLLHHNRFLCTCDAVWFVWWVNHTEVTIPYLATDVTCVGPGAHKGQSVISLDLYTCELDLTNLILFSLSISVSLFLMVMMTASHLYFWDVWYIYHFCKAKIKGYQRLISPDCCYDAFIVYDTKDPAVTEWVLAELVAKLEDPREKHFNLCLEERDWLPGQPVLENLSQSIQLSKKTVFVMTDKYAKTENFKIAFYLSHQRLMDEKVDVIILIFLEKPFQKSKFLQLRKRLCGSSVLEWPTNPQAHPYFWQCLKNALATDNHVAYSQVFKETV
Method: as §1, with “The interaction of non-DNA base-containing polynucleotides (SEQ ID NOs: 1-3) to interact with TLR and induce down-stream signaling was tested by assessing NF-κB activation in HEK293 cells expressing human TLR2, 3, 4, 5, 7, 8 and 9.” left out

T1 sequence (Q9Y6Y9 17-160): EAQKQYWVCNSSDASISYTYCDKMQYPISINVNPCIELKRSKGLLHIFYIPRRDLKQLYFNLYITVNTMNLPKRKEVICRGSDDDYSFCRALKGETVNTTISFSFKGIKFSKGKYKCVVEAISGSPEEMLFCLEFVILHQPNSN
T1 sequence (O00206 24-839): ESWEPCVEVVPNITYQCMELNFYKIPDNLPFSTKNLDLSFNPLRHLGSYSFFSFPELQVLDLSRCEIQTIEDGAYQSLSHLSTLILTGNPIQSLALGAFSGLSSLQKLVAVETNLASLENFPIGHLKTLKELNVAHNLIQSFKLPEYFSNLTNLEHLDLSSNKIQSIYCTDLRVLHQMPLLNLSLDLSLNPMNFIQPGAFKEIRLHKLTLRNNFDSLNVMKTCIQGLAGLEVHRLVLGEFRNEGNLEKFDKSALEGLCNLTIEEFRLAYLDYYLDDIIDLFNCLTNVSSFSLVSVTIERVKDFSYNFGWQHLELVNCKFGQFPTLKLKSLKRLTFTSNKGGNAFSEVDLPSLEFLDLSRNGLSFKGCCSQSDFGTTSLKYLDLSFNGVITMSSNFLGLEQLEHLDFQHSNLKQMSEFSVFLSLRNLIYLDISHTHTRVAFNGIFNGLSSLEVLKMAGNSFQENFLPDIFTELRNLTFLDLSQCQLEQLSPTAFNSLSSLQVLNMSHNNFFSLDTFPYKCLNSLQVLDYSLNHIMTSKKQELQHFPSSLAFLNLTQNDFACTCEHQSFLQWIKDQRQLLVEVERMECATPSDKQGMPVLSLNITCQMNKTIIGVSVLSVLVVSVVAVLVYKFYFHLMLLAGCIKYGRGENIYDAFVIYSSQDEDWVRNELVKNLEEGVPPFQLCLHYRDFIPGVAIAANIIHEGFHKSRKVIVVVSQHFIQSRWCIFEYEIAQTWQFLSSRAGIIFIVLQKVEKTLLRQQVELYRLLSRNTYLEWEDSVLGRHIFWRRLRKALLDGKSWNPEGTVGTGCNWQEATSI

| Substance | TLR activation, Optical Density at 650 nm, hTLR4 (human TLR4) | TLR activation, Optical Density at 650 nm, hHTR7 (human TLR7) |
| --- | --- | --- |
| UUGTUU [SEQ ID NO: 2] | 0.052 | 0.090 |
| IIGTII [SEQ ID NO: 3] | 0.050 | 0.093 |
| NebGGTGNeb (DNA NGGTGN; Nebularine at both ends, sugar and linkages not given here, further chemistry not given here) [SEQ ID NO: 1, 5′-OH, 3′-OH non-DNA base-containing polynucleotide] | 0.050 | 0.097 |
